Reference: US20230053649A1 (Cedilla Therapeutics, Inc., priority 2021, published 2023)
pIC50: −log10 of the molar value.

Assays:
[1] = tested on: mesothelioma cell line NCI-H226; experiment: 72H TEAD Proliferation Assay (Cell Titer-Glo 2.0); format: cell-based; conditions: Homo sapiens, CTG 2.0, cell line not given in Table 1 (NCI-H226 TEAD-responsive, NCI-H28 non-responsive counter-screen)
Protocol: 72H TEAD Proliferation Assay.
The effect of TEAD inhibition on cell proliferation was assayed using Cell Titer Glo (CTG) 2.0 to measure response in mesothelioma cell lines NCI-H226 (ATCC, #CRL-5826) and NCI-H28 (ATCC, #CRL-5820).
The 72H TEAD Proliferation assay utilizes Cell Titer-Glo 2.0 (Promega, #G9243) to measure the proliferation of cells in the presence or absence of compound. Cell Titer-Glo 2.0 determines the amount of viable cells by quantifying ATP (an indication of metabolically active cells). It utilizes the conversion of Luciferin to Oxyluciferin and a luminescent signal with the use of ATP to report the quantity of viable cells in culture. Within cells that are continually growing, ATP is being synthesized to meet their metabolic demands, meanwhile the opposite is true for cells that are dying or slowing down their proliferation and either no longer using ATP or are using less, respectively. The NF2-deficient NCI-H226 has been genetically validated as a cell line that is sensitive to TEAD inhibition. The NF2-wild type NCI-H28 has been genetically validated as a cell line that is not sensitive to TEAD inhibition and grows independently of TEAD activity.
Compounds were screened against the responsive NCI-H226 cell line to assess the compounds' ability to inhibit TEAD and cell growth. Compounds were also screened against the non-responsive NCI-H28 cell line to ascertain whether the inhibition of cell growth was due to inhibition of the target TEAD or whether the inhibition was due to off-target cytotoxicity.
Both NCI-H226 and NCI-H28 cells were grown at 37° C. with 5% CO2 using Growth Medium 1.
Anti-proliferative effect of compounds that inhibits TEAD activity measured by CTG
1) Assay ready plates (ARPs) were prepared by Echo acoustic liquid handler. For each compound, duplicate of 10-point half-log dilution series were dispensed in a 384-well microplate (Corning 3571).
3) Before use, ARPs were allowed to warm up to room temperature for 30 min.
4) ARPs were spun for 5 minutes at 1500RPM before removing the plate seals.
5) NCI-H226 or NCI-H28 cells were harvested from culture in Assay Medium 1 and the multidrop Combi reagent dispenser was used to seed cells at 500 cells per 50ul in each well of the ARPs and one Corning 3571 plate without compounds for Time 0 (TO) readout.
6) The TO plate was incubated for 2 hours at 37° C. with 5% CO2 to allow cells to settle, then the CTG Assay was performed.
7) All ARPs were incubated for 72 hours at 37° C. with 5% CO2, then the CTG Assay was performed for Time 72H (T72) readout.
8) CTG Assay: Bravo liquid handler (Agilent) was used to add 25ul of CTG 2.0 to all columns of the plate except for Column 24, which was used to subtract out the background. After CTG addition, plates were placed on shaker at 800RPM for 15 minutes at room temperature and kept in the dark. Luminescence was measured using EnVision multilabel plate reader with ultra-sensitive detection module.
9) Data Analysis: First background luminescence (no CTG wells) was subtracted from luminescence reading of all wells, then TO luminescence was subtracted from T72 luminescence. To compare anti-proliferative effect of compounds, GI50 was obtained by fitting dose response curves with nonlinear regression curve fit.

[2] = biological target: T1, TEAD1 protein (YAP Binding Domain) (Homo sapiens, UniProt P28347); experiment: TEAD1 lipid pocket compound displacement assay (CDA, TR-FRET); conditions: read-out: CDA IC50, displacement of Cy5-probe from His-TEAD1, 60 minutes at room temperature
Protocol: Compound Displacement Assay.
(§1) A TEAD1 lipid pocket displacement assay was carried out according to the following protocol. Purified His-tagged TEAD1 protein (YAP Binding Domain) was pre-mixed with a Cy5-probe (Cy5-conjugated to a small molecule that binds in the TEAD1 lipid pocket) and Terbium-labeled anti-His antibody (Cisbio Cat 61HI2TLB). The binding of the Cy5-probe to anti-His-Tb/His-tag TEAD1 complex yielded a TR-FRET signal. […] After 60 minutes incubation at room temperature of compounds with the His-TEAD1/anti-His-Tb/Cy5-probe complex, the plate was read on a plate reader (BMG ClarioStar Cat 430-1300) using TR-FRET mode with wavelengths of 665 nm/620 nm. The potency of compounds as TEAD1 lipid pocket binders was determined by IC50 value generated using a non-linear 4 parameter curve fit.

[3] = biological target: T1, TEAD1 protein (YAP Binding Domain); experiment: biochemical
Protocol: Compound Displacement Assay.
as §1

[4] = tested on: EGFR-mutant NSCLC PC-9 cells; experiment: Apoptosis (caspase-3/7, IncuCyte) in combination with EGFR inhibitor Osimertinib; format: cell-based
Protocol: Apoptosis was detected by CellEvent Caspase 3/7 Green ReadyProbes Reagent (ThermoFisher), a fluorogenic indicator of activated caspase-3/7. Cell death (apoptsis) and cell growth (phase confluence) over time were captured by IncuCyte live cell imaging system (Essen Bioscience) and quantified by IncuCyte S3 software (Essen Bioscience). Apoptotic Index was calculated by dividing apoptosis signal with phase confluence.

T1 sequence (P28347 167-426 limits assumed): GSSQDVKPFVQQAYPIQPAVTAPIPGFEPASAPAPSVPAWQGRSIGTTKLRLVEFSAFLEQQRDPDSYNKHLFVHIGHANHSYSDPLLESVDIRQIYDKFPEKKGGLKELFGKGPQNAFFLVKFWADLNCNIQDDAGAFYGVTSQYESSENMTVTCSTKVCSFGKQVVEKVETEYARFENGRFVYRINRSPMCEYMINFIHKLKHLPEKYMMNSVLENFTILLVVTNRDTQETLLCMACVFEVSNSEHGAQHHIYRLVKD

Row | SMILES | GI50 [1] | pIC50 [3] | other results
1 | COc1ccc2c(N3CCC(C(F)(F)F)CC3)nc(C(N)=O)cc2c1 [Compound 66] | 1000 to 5000 nM |  | pIC50 [2]: > 6.82
2 | COc1cc(N2CCC(C(F)(F)F)CC2)c2ncc(C(=O)N[C@H](C)CO)cc2c1 [Compound I-1, (R)-N-(1-hydroxypropan-2-yl)-6-methoxy-8-(4-(trifluoromethyl)piperidin-1-yl)quinoline-3-carboxamide] | 500 to 1000 nM | 6.52 to 6.82 | Fold Change over DMSO at 48 hrs (apoptotic index) ([4]; I-1 (10 μM) alone): 1.0; Fold Change over DMSO at 48 hrs (apoptotic index) ([4]; Osimertinib (100 nM) + I-1 (0.37 μM), 24 h Osimertinib pre-treatment): 4.1; Fold Change over DMSO at 48 hrs (apoptotic index) ([4]; Osimertinib (100 nM) + I-1 (1.1 μM), 24 h Osimertinib pre-treatment): 5.4; Fold Change over DMSO at 48 hrs (apoptotic index) ([4]; Osimertinib (100 nM) + I-1 (10 μM), 24 h Osimertinib pre-treatment): 7.0
3 | CCOc1cc2cc(C(=O)N[C@H](C)CO)ccc2c(N2CCC(C(F)(F)F)CC2)n1 [Compound I-62, (R)-3-ethoxy-N-(1-hydroxypropan-2-yl)-1-(4-(trifluoromethyl)piperidin-1-yl)isoquinoline-6-carboxamide] | ≤ 500 nM | > 6.82 | 
4 | C[C@H](CO)NC(=O)c1ccc2c(N3CCC(C(F)(F)F)CC3)nccc2c1 [Compound I-63, (R)-N-(1-hydroxypropan-2-yl)-1-(4-(trifluoromethyl)piperidin-1-yl)isoquinoline-6-carboxamide] | 1000 to 5000 nM | 6.30 to 6.52 | 
5 | COc1cc2cc(C(=O)N[C@@H](C)c3ccccn3)ccc2c(N2CCC(C(F)(F)F)CC2)n1 [Compound I-64, (S)-3-methoxy-N-(1-(pyridin-2-yl)ethyl)-1-(4-(trifluoromethyl)piperidin-1-yl)isoquinoline-6-carboxamide] | ≤ 500 nM | > 6.82 | 
6 | CC[C@H](CO)NC(=O)c1ccc2c(N3CCC(C(F)(F)F)CC3)nc(OC)cc2c1 [Compound I-65, (R)-N-(1-hydroxybutan-2-yl)-3-methoxy-1-(4-(trifluoromethyl)piperidin-1-yl)isoquinoline-6-carboxamide] | ≤ 500 nM | > 6.82 | 
7 | C#Cc1ccc(-c2cccc3cc(C(=O)N[C@@H](C)c4ccccn4)cnc23)cc1 [I′-29, (S)-8-(4-ethynylphenyl)-N-(1-(pyridin-2-yl)ethyl)quinoline-3-carboxamide] | 1000 to 5000 nM | > 6.82 | 
8 | C[C@H](NC(=O)c1cnc2c(-c3ccc(C#N)cc3)cccc2c1)c1ccccn1 [I′-32, (S)-8-(4-cyanophenyl)-N-(1-(pyridin-2-yl)ethyl)quinoline-3-carboxamide] | 1000 to 5000 nM | 6.30 to 6.52 | 
9 | COc1cc(-c2ccc(C(C)(C)C)cc2)c2ncc(C(=O)N[C@H](C)CO)cc2c1 [I′-33, (R)-8-(4-(tert-butyl)phenyl)-N-(1-hydroxypropan-2-yl)-6-methoxyquinoline-3-carboxamide] | 500 to 1000 nM | 6.52 to 6.82 | 
10 | COc1cc(-c2ccc(C(C)(C)O)cc2)c2ncc(C(=O)N[C@H](C)CO)cc2c1 [I′-34, (R)-N-(1-hydroxypropan-2-yl)-8-(4-(2-hydroxypropan-2-yl)phenyl)-6-methoxyquinoline-3-carboxamide] | > 5000 nM | 6.30 to 6.52 | 
11 | CC[C@H](CO)NC(=O)c1ccc2c(-c3ccc(C(F)(F)F)cc3)nc(OC)cc2c1 [I″-53, (R)-N-(1-hydroxybutan-2-yl)-3-methoxy-1-(4-(trifluoromethyl)phenyl)isoquinoline-6-carboxamide] | ≤ 500 nM | > 6.82 | 
12 | COC[C@H](C)NC(=O)c1ccc2c(-c3ccc(C(F)(F)F)cc3)nc(OC)cc2c1 [I″-54, (S)-3-Methoxy-N-(1-methoxypropan-2-yl)-1-(4-(trifluoromethyl)phenyl)isoquinoline-6-carboxamide] | ≤ 500 nM | > 6.82 | 
13 | COc1cc2cc(C(=O)N[C@@H](C)c3ccccn3)ccc2c(-c2ccc(C(F)(F)F)cc2)n1 [I″-55, (S)-3-methoxy-N-(1-(pyridin-2-yl)ethyl)-1-(4-(trifluoromethyl)phenyl)isoquinoline-6-carboxamide] | ≤ 500 nM | > 6.82 | 
14 | C[C@H](CO)NC(=O)c1ccc2c(-c3ccc(C(F)(F)F)cc3)[nH]c(=O)cc2c1 [I″-56] | > 5000 nM | < 6.30 | 
15 | C=CC(=O)Nc1cc(Nc2nccc(-c3cn(C)c4ccccc34)n2)c(OC)cc1N(C)CCN(C)C [Osimertinib, reference compound] |  |  | Fold Change over DMSO at 48 hrs (apoptotic index) ([4]; Osimertinib (100 nM) alone): 2.6
